Assay results: patent US12692253B2, “Antimicrobial compounds and methods” (Curza Global, LLC, priority 2019, dated 2026)

Columns and labels:
[1] = system: E. coli S30 extract (bacterial protein synthesis); experiment: E. coli S30 extract coupled transcription-translation luciferase assay (inhibition of bacterial protein synthesis); assay type: biochemical; details: % inhibition @ 1 μM, read-out: S30 IC50 (μM/% inhib.)
Outline: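 Coupled transcription-translation in E. coli S30 circular-DNA extract expressing luciferase from pBESTluc, with 8-point 2-fold compound dilutions; 1 hour at 37 °C, stopped at 4 °C. Luminescence read; % inhibition versus no-inhibitor wells, no-DNA wells as background.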

[2] = target: Rabbit Reticulocyte Lysate (eukaryotic protein synthesis); experiment: Rabbit reticulocyte lysate luciferase assay (inhibition of eukaryotic protein synthesis); assay type: biochemical; details: % inhibition @ 1 μM, read-out: Rabbit reticulocyte IC50 (μM/% inhib.)
Outline: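 In vitro translation of luciferase control RNA in nuclease-treated rabbit reticulocyte lysate with amino acid mixture, compounds in 2-fold serial dilution, 90 minutes at 30° C. Luminescence read after luciferase reagent; % inhibition relative to water no-inhibitor controls, with no-RNA background wells.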

A. baumannn (Ab) = experiment: Broth microdilution minimum inhibitory concentration (MIC), CLSI; assay type: cell-based; details: A. baumannn; growth medium with sodium bicarbonate; read-out: Ab + bicarb MIC
Outline: (§1)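 Bacteria grown at 35±2 °C to 0.5 McFarland turbidity were added at 5×10^4 CFU/well to triplicate two-fold compound series (8 dilutions). Media were cation-adjusted Mueller-Hinton broth alone or with sodium bicarbonate (6.25 or 25 mM final) or heat-inactivated human serum (0–50%), per modified CLSI method.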

E. coli (Ec) = experiment: as above; assay type: cell-based; details: Escherichia coli, growth medium with sodium bicarbonate, read-out: E. coli + bicarb MIC
Outline: as §1

E. faecalis (Ef) = experiment: as above; assay type: cell-based; details: Enterococcus faecalis, growth medium with sodium bicarbonate, read-out: Ef + bicarb MIC
Outline: as §1

P. aeruginosa (Pa) = experiment: as above; assay type: cell-based; details: Pseudomonas aeruginosa, growth medium with sodium bicarbonate, read-out: Pa MIC + bicarb
Outline: as §1

S. aureus (Sa) = experiment: as above; assay type: cell-based; details: Staphylococcus aureus, growth medium with sodium bicarbonate, read-out: Sa + bicarb MIC
Outline: as §1

SMILES | IC50 [1] | IC50 [2] | MIC (A. baumannn (Ab)) | MIC (E. coli (Ec)) | MIC (E. faecalis (Ef)) | MIC (P. aeruginosa (Pa)) | MIC (S. aureus (Sa))
NC[C@@H]1[C@H]2CN(C(=O)Nc3ccn(-c4ccc(CN5C[C@@H]6[C@@H](N)[C@@H]6C5)cc4)c(=O)n3)C[C@@H]12 [Compound 247] | ≥ 1 µM | ≥ 1 µM | > 32 µg/mL | > 32 µg/mL | > 32 µg/mL | > 32 µg/mL | > 32 µg/mL
NCC1CCN(C(=O)Nc2ccn(-c3ccc(CN4C[C@@H]5[C@@H](N)[C@@H]5C4)cc3)c(=O)n2)CC1 [Compound 248] | ≥ 1 µM | ≥ 1 µM | > 32 µg/mL | > 32 µg/mL | > 32 µg/mL | > 32 µg/mL | > 32 µg/mL
N[C@@H]1[C@H]2CN(Cc3ccc(-n4ccc(NC(=O)N5C[C@@H]6[C@@H](N)[C@@H]6C5)nc4=O)cc3)C[C@@H]12 [Compound 249] | ≥ 1 µM | ≥ 1 µM | > 32 µg/mL | 8 to 32 µg/mL | > 32 µg/mL | > 32 µg/mL | > 32 µg/mL
NCCC1CCN(C(=O)Nc2ccn(-c3ccc(CN4C[C@@H]5[C@@H](N)[C@@H]5C4)cc3)c(=O)n2)CC1 [Compound 250] | ≥ 1 µM | ≥ 1 µM | > 32 µg/mL | > 32 µg/mL | > 32 µg/mL | > 32 µg/mL | > 32 µg/mL
NC[C@@H]1CCN(C(=O)Nc2ccn(-c3ccc(CN4C[C@@H]5[C@@H](N)[C@@H]5C4)cc3)c(=O)n2)C1 [Compound 251] | ≥ 1 µM | ≥ 1 µM | > 32 µg/mL | > 32 µg/mL | > 32 µg/mL | > 32 µg/mL | > 32 µg/mL
NCC1CC2(CCN(C(=O)Nc3ccn(-c4ccc(CN5C[C@@H]6[C@@H](N)[C@@H]6C5)cc4)c(=O)n3)CC2)C1 [Compound 252] | 0.5 to 1 µM | ≥ 1 µM | > 32 µg/mL | < 8 µg/mL | > 32 µg/mL | > 32 µg/mL | < 8 µg/mL
NC[C@H]1CCN(C(=O)Nc2ccn(-c3ccc(CN4C[C@@H]5[C@@H](N)[C@@H]5C4)cc3)c(=O)n2)C1 [Compound 253] | ≥ 1 µM | ≥ 1 µM | > 32 µg/mL | > 32 µg/mL | > 32 µg/mL | > 32 µg/mL | > 32 µg/mL
NCC1CN(C(=O)Nc2ccn(-c3ccc(CN4C[C@@H]5[C@@H](N)[C@@H]5C4)cc3)c(=O)n2)C1 [Compound 254] | 0.5 to 1 µM | ≥ 1 µM | > 32 µg/mL | 8 to 32 µg/mL | > 32 µg/mL | > 32 µg/mL | > 32 µg/mL
NCCC1CN(C(=O)Nc2ccn(-c3ccc(CN4C[C@@H]5[C@@H](N)[C@@H]5C4)cc3)c(=O)n2)C1 [Compound 255] | 0.5 to 1 µM | ≥ 1 µM | > 32 µg/mL | 8 to 32 µg/mL | > 32 µg/mL | > 32 µg/mL | > 32 µg/mL
